This note sets out measurements from ChEMBL document CHEMBL1781986, “Structure-activity relationships of pyrrole based S-nitrosoglutathione reductase inhibitors: pyrrole regioisomers and propionic acid replacement” (Bioorg Med Chem Lett, 2011).

Calls of active or inactive are those of the source. The calls are words filed in the database; no cut-off is given here.

Experiment [1] addresses Beta-1 adrenergic receptor (Homo sapiens) (UniProt P08588). Briefly: Inhibition of human recombinant beta1 receptor at 10 uM by radioligand binding assay.
Experiment [2] has as its target T1, B2 bradykinin receptor (Homo sapiens) (UniProt P30411).
T1 sequence (whole entry): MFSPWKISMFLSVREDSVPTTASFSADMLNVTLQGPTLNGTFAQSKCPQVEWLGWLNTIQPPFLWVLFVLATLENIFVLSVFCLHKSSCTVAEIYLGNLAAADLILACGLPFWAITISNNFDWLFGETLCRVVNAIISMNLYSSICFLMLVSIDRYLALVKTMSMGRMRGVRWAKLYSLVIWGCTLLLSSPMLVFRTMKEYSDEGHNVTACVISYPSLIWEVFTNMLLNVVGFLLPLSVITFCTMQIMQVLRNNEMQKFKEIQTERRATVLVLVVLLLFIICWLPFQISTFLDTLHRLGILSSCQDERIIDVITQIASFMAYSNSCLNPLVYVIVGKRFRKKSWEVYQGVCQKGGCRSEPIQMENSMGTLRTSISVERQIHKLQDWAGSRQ
Description: Inhibition of human recombinant B2 bradykinin receptor at 10 uM by radioligand binding assay.

In experiment [3] the target is T2, Cholecystokinin receptor type A (Homo sapiens) (UniProt P32238).
T2 sequence (whole entry): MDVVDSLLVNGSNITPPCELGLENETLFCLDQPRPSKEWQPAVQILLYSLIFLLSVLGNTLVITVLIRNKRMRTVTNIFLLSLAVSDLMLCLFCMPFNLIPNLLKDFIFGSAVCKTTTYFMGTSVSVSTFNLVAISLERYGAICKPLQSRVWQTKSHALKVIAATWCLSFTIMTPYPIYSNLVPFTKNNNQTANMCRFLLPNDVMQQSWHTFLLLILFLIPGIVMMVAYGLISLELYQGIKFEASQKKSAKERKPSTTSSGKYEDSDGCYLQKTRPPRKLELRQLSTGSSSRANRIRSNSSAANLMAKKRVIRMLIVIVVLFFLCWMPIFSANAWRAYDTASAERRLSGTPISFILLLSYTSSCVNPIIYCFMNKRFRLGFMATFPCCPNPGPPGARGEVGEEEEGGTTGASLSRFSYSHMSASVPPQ
Briefly: Inhibition of human recombinant CCK1 receptor at 10 uM by radioligand binding assay.

Experiment [4] deals with T3, C-X-C chemokine receptor type 2 (Homo sapiens) (UniProt P25025).
T3 sequence (whole entry): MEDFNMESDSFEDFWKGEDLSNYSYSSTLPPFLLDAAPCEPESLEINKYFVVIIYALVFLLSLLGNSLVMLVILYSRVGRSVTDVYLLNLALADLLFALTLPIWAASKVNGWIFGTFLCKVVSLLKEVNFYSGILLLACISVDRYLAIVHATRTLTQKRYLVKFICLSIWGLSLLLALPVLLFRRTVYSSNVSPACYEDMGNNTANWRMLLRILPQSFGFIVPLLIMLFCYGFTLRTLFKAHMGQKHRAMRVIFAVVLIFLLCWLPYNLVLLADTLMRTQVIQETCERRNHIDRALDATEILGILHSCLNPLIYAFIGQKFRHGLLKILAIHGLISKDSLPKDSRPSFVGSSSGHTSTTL
Briefly: Inhibition of human recombinant CXCR2 receptor at 10 uM by radioligand binding assay.

Experiment [5] concerns the target T4, Muscarinic acetylcholine receptor M2 (Homo sapiens) (UniProt P08172).
T4 sequence (whole entry): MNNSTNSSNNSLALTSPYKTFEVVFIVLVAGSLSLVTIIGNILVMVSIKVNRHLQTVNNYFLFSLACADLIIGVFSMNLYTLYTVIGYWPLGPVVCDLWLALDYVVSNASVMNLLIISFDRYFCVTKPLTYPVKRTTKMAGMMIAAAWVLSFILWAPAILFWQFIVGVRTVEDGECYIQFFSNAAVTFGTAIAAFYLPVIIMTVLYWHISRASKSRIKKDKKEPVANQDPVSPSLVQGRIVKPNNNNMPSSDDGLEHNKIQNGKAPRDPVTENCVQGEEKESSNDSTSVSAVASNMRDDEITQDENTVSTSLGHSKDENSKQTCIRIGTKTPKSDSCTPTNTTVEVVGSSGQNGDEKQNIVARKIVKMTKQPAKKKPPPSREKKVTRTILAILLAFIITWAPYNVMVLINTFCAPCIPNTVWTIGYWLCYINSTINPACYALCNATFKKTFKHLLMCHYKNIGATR
Briefly: Inhibition of human recombinant M2 receptor at 10 uM by radioligand binding assay.

In experiment [6] the target is Neurotensin receptor type 1 (Homo sapiens) (UniProt P30989). Description: Inhibition of human recombinant NTS1 receptor at 10 uM by radioligand binding assay.
Experiment [7] is filed under the species Homo sapiens. Briefly: Inhibition of human recombinant chloride channel at 10 uM by radioligand binding assay.
Experiment [8] concerns the target Neuropeptide Y receptor type 2 (Homo sapiens) (UniProt P49146). Briefly: Inhibition of human recombinant Y2 receptor at 10 uM by radioligand binding assay.
The nature of experiment [9]: Inhibition of GSNOR expressed in Escherichia coli using GSNO by plate method.
For experiment [10], the system named is A549. Description: Cytotoxicity against human A549 cells. Type of experiment: functional, cell-based.

For orientation: IC50 means the point on the concentration scale where inhibition reaches its midpoint. Lower therefore signals greater potency in that assay.

Chain of Beta-1 adrenergic receptor (Homo sapiens) (P08588 whole entry, looked up): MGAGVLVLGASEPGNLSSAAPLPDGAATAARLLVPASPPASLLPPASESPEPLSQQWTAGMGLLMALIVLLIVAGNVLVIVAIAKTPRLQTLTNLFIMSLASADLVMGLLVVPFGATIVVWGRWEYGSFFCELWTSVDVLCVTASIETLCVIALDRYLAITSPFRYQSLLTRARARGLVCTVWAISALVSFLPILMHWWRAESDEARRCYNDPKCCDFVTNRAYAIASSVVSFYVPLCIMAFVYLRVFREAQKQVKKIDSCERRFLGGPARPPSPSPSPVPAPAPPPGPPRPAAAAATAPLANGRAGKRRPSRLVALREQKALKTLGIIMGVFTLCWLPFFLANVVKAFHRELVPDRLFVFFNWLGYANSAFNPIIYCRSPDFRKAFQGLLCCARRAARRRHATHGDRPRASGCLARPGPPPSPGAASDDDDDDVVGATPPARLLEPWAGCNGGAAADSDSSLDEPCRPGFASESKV
Chain of Neuropeptide Y receptor type 2 (Homo sapiens) (P49146 whole entry, looked up): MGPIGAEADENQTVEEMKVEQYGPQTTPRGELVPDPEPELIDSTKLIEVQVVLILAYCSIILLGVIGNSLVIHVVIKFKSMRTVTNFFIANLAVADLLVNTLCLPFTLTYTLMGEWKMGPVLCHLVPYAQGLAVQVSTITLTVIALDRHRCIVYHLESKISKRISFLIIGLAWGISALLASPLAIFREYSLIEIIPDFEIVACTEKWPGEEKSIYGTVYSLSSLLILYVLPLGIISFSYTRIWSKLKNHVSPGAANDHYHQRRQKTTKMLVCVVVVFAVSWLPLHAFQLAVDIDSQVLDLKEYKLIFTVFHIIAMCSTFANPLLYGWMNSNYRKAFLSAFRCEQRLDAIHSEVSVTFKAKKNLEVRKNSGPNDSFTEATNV
Chain of Neurotensin receptor type 1 (Homo sapiens) (P30989 whole entry): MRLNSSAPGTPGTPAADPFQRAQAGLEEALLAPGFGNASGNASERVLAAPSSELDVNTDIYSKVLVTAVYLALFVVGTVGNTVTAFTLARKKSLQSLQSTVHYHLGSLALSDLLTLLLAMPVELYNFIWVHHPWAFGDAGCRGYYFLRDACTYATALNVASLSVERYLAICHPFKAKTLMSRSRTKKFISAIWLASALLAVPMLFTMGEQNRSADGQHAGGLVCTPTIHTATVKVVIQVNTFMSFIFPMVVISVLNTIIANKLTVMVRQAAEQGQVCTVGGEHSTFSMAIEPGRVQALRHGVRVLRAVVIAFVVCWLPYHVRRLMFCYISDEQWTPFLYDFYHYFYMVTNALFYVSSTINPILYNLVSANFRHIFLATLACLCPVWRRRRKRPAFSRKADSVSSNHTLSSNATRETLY

As to `COc1ccc(-c2ccn(-c3ccc(C(=O)O)c(O)c3)c2-c2ccc(C(N)=O)cc2C)cc1`, the inhibition entry in experiment [1], in [2], in experiment [3], in experiment [4], in [5] and in experiment [6] was “Active” each time. Further, the inhibition entry in experiment [7] and in experiment [8] was “Active” in each case.
Consider `Cc1cc(C(N)=O)ccc1-c1c(CCC(=O)O)ccn1-c1ccc(-n2ccnc2)cc1`, for which the IC50 in [9] was 9.9 nM; in [10], greater than 250000 nM. Moreover, the inhibition entry in experiment [1], in experiment [2], in experiment [3], in experiment [4], in [5] and in experiment [6] was “inactive” in each case. In addition, the inhibition entry in experiment [7] and in experiment [8] was “inactive” throughout.
For the compound `Cc1cc(C(N)=O)ccc1-n1c(CCC(=O)O)ccc1-c1ccc(-n2ccnc2)cc1` [N6022], it took 10 nM to reach half-maximal inhibition in experiment [9] (IC50). In addition, the inhibition result in experiment [1], in experiment [2], in experiment [3], in experiment [4], in experiment [5] and in experiment [6] was “inactive” throughout. Moreover, the inhibition entry in experiment [7] and in experiment [8] was “inactive” each time.
Consider `COc1ccc(-c2ccn(-c3ccc(O)c([N+](=O)[O-])c3)c2-c2ccc(C(N)=O)cc2C)cc1`, for which the inhibition result in [1], in experiment [2], in [3], in [4], in experiment [5] and in experiment [6] was “Active” each time. For the same compound, the inhibition result in experiment [7] and in experiment [8] was “Active” throughout.
In experiment [9], `Cc1cc(C(N)=O)ccc1-c1c(-c2ccc(-n3ccnc3)cc2)ccn1CCC(=O)O` displayed an IC50 of 35 nM. In addition, the inhibition result in experiment [1], in experiment [2], in experiment [3], in experiment [4], in experiment [5] and in experiment [6] was “inactive” each time. Moreover, the inhibition result in [7] and in experiment [8] was “inactive” throughout.
